≈ marks a conversion by molar mass, not a printed value.
How the values were obtained:
Caenorhabditis elegans = assay: Minimum inhibitory concentration for growth inhibition of Caenorhabditis elegans (free living nematode) in a microplate assay; assay type: functional
Artemia salina = assay: Minimum inhibitory concentration for growth inhibition of Artemia salina(brine shrimp) in a microplate assay; assay type: functional

SMILES | MIC (Caenorhabditis elegans) | MIC (Artemia salina)
CCC(C)[C@H]1O[C@]2(C=C[C@@H]1C)C[C@@H]1C[C@@H](C/C=C(\C)C(O[C@H]3C[C@H](OC)C(O[C@H]4C[C@H](OC)[C@@H](OCCBr)[C@H](C)O4)[C@H](C)O3)[C@@H](C)/C=C/C=C3\CO[C@@H]4[C@H](O)C(C)=CC(C(=O)O1)C34O)O2 (stereo not given in full) | 10 ng/mL (≈ 10.2 nM) | 2 ng/mL (≈ 2.04 nM)
CCC(C)[C@H]1O[C@]2(CC[C@@H]1C)C[C@@H]1C[C@@H](C/C=C(\C)C(O[C@H]3C[C@H](OC)C(O[C@H]4C[C@H](OC)[C@@H](OCC(=O)O)[C@H](C)O4)[C@H](C)O3)[C@@H](C)/C=C/C=C3\CO[C@@H]4[C@H](O)C(C)=CC(C(=O)O1)C34O)O2 (stereo not given in full) | 0.5 ng/mL (≈ 0.536 nM) | 0.1 ng/mL (≈ 0.107 nM)
CCC(C)[C@H]1O[C@]2(C=C[C@@H]1C)C[C@@H]1C[C@@H](C/C=C(\C)[C@@H](O[C@H]3C[C@H](OC)[C@@H](OCC(=O)O)[C@H](C)O3)[C@@H](C)/C=C/C=C3\CO[C@@H]4[C@H](O)C(C)=CC(C(=O)O1)C34O)O2 (stereo not given in full) | 10 ng/mL (≈ 12.7 nM) | 2 ng/mL (≈ 2.54 nM)
CCC(C)[C@H]1O[C@]2(CC[C@@H]1C)C[C@@H]1C[C@@H](C/C=C(\C)[C@@H](O[C@H]3C[C@H](OC)[C@@H](OCC(=O)O)[C@H](C)O3)[C@@H](C)/C=C/C=C3\CO[C@@H]4[C@H](O)C(C)=CC(C(=O)O1)C34O)O2 (stereo not given in full) | 10 ng/mL (≈ 12.7 nM) | 10 ng/mL (≈ 12.7 nM)
CCC(C)[C@H]1O[C@]2(C=C[C@@H]1C)C[C@@H]1C[C@@H](C/C=C(\C)[C@@H](OC3C[C@H](OC)[C@@H](OC4C[C@H](OC)[C@@H](OCC(=O)O)[C@H](C)O4)[C@H](C)O3)[C@@H](C)/C=C/C=C3\CO[C@@H]4[C@H](O)C(C)=C[C@@H](C(=O)O1)[C@]34O)O2 (stereo not given in full) | 0.1 ng/mL (≈ 0.107 nM) | 0.02 ng/mL (≈ 0.0215 nM)
CCOC(=O)CO[C@H]1[C@H](C)O[C@@H](OC2[C@H](C)O[C@@H](OC3/C(C)=C/C[C@@H]4C[C@@H](C[C@]5(CC(=O)[C@H](C)[C@@H](C(C)CC)O5)O4)OC(=O)C4C=C(C)[C@@H](O)[C@H]5OC/C(=C\C=C\[C@@H]3C)C45O)C[C@@H]2OC)C[C@@H]1OC (stereo not given in full) | 10 ng/mL (≈ 10.3 nM) | 2 ng/mL (≈ 2.05 nM)
CCC(C)[C@H]1O[C@]2(C=C[C@@H]1C)C[C@@H]1C[C@@H](C/C=C(\C)C(O[C@H]3C[C@H](OC)C(O[C@H]4C[C@H](OC)[C@@H](OCCN=[N+]=[N-])[C@H](C)O4)[C@H](C)O3)[C@@H](C)/C=C/C=C3\CO[C@@H]4[C@H](O)C(C)=CC(C(=O)O1)C34O)O2 (stereo not given in full) | 10 ng/mL (≈ 10.6 nM) | 0.5 ng/mL (≈ 0.531 nM)
CCC(C)[C@H]1O[C@]2(C=C[C@@H]1C)C[C@@H]1C[C@@H](C/C=C(\C)[C@@H](OC3C[C@H](OC)[C@@H](OC4C[C@H](OC)[C@@H](OCC(=O)N5CCOCC5)[C@H](C)O4)[C@H](C)O3)[C@@H](C)/C=C/C=C3\CO[C@@H]4[C@H](O)C(C)=C[C@@H](C(=O)O1)[C@]34O)O2 (stereo not given in full) | 0.5 ng/mL (≈ 0.5 nM) | 0.5 ng/mL (≈ 0.5 nM)
CCOC(=O)CO[C@H]1[C@H](C)O[C@@H](OC2[C@H](C)O[C@@H](OC3/C(C)=C/C[C@@H]4C[C@@H](C[C@]5(C/C(=N\OC)[C@H](C)[C@@H](C(C)CC)O5)O4)OC(=O)C4C=C(C)[C@@H](O)[C@H]5OC/C(=C\C=C\[C@@H]3C)C45O)C[C@@H]2OC)C[C@@H]1OC (stereo not given in full) | 2 ng/mL (≈ 1.99 nM) | 2 ng/mL (≈ 1.99 nM)
CCC(C)[C@H]1O[C@]2(C=C[C@@H]1C)C[C@@H]1C[C@@H](C/C=C(\C)C(O[C@H]3C[C@H](OC)C(O[C@H]4C[C@H](OC)[C@@H](OCCN5CCNCC5)[C@H](C)O4)[C@H](C)O3)[C@@H](C)/C=C/C=C3\CO[C@@H]4[C@H](O)C(C)=CC(C(=O)O1)C34O)O2 (stereo not given in full) | 50 ng/mL (≈ 50.7 nM) | 10 ng/mL (≈ 10.1 nM)
CCC(C)[C@H]1O[C@]2(C=C[C@@H]1C)C[C@@H]1C[C@@H](C/C=C(\C)[C@@H](OC3C[C@H](OC)[C@@H](OC4C[C@H](OC)C(OCC(=O)N5CCCCC5)[C@H](C)O4)[C@H](C)O3)[C@@H](C)/C=C/C=C3\CO[C@@H]4[C@H](O)C(C)=C[C@@H](C(=O)O1)[C@]34O)O2 (stereo not given in full) | 10 ng/mL (≈ 10 nM) | 10 ng/mL (≈ 10 nM)
CCC(C)[C@H]1O[C@]2(C=C[C@@H]1C)C[C@@H]1C[C@@H](C/C=C(\C)C(O[C@H]3C[C@H](OC)C(O[C@H]4C[C@H](OC)[C@@H](OCCNC(C)=O)[C@H](C)O4)[C@H](C)O3)[C@@H](C)/C=C/C=C3\CO[C@@H]4[C@H](O)C(C)=CC(C(=O)O1)C34O)O2 (stereo not given in full) | 10 ng/mL (≈ 10.4 nM) | 10 ng/mL (≈ 10.4 nM)
CCOC(=O)CO[C@H]1[C@H](C)O[C@@H](O[C@@H]2/C(C)=C/C[C@@H]3C[C@@H](C[C@]4(C=C[C@H](C)[C@@H](C(C)CC)O4)O3)OC(=O)C3C=C(C)[C@@H](O)[C@H]4OC/C(=C\C=C\[C@@H]2C)C34O)C[C@@H]1OC (stereo not given in full) | 2 ng/mL (≈ 2.45 nM) | 0.5 ng/mL (≈ 0.613 nM)
CCC(C)[C@H]1O[C@]2(C=C[C@@H]1C)C[C@@H]1C[C@@H](C/C=C(\C)C(O[C@H]3C[C@H](OC)C(O[C@H]4C[C@H](OC)[C@@H](OC/C=N/O)[C@H](C)O4)[C@H](C)O3)[C@@H](C)/C=C/C=C3\CO[C@@H]4[C@H](O)C(C)=CC(C(=O)O1)C34O)O2 (stereo not given in full) | 2 ng/mL (≈ 2.15 nM) | 2 ng/mL (≈ 2.15 nM)
CCC(C)[C@H]1O[C@]2(CC[C@@H]1C)C[C@@H]1C[C@@H](C/C=C(\C)[C@@H](OC3C[C@H](OC)[C@@H](OC4C[C@H](OC)[C@@H](O)[C@H](C)O4)[C@H](C)O3)[C@@H](C)/C=C/C=C3\CO[C@@H]4[C@H](O)C(C)=C[C@@H](C(=O)O1)[C@]34O)O2 (stereo not given in full) | 2 ng/mL (≈ 2.29 nM) | 2 ng/mL (≈ 2.29 nM)
CCC(C)[C@H]1O[C@]2(C=C[C@@H]1C)C[C@@H]1C[C@@H](C/C=C(\C)C(O[C@H]3C[C@H](OC)C(O[C@H]4C[C@H](OC)[C@@H](OCCO)[C@H](C)O4)[C@H](C)O3)[C@@H](C)/C=C/C=C3\CO[C@@H]4[C@H](O)C(C)=CC(C(=O)O1)C34O)O2 (stereo not given in full) | 10 ng/mL (≈ 10.9 nM) | 2 ng/mL (≈ 2.18 nM)
CCC(C)[C@H]1O[C@]2(C=C[C@@H]1C)C[C@@H]1C[C@@H](C/C=C(\C)C(O[C@H]3C[C@H](OC)C(O[C@H]4C[C@H](OC)[C@@H](OCCN5CCCCC5)[C@H](C)O4)[C@H](C)O3)[C@@H](C)/C=C/C=C3\CO[C@@H]4[C@H](O)C(C)=CC(C(=O)O1)C34O)O2 (stereo not given in full) | 50 ng/mL (≈ 50.8 nM) | 10 ng/mL (≈ 10.2 nM)
CCC(C)[C@H]1O[C@]2(C=C[C@@H]1C)C[C@@H]1C[C@@H](C/C=C(\C)C(O[C@H]3C[C@H](OC)C(O[C@H]4C[C@H](OC)[C@@H](OCCN5CCOCC5)[C@H](C)O4)[C@H](C)O3)[C@@H](C)/C=C/C=C3\CO[C@@H]4[C@H](O)C(C)=CC(C(=O)O1)C34O)O2 (stereo not given in full) | 10 ng/mL (≈ 10.1 nM) | 2 ng/mL (≈ 2.03 nM)
CCC(C)[C@H]1O[C@]2(C=C[C@@H]1C)C[C@@H]1C[C@@H](C/C=C(\C)C(O[C@H]3C[C@H](OC)C(O[C@H]4C[C@H](OC)[C@@H](OCCN)[C@H](C)O4)[C@H](C)O3)[C@@H](C)/C=C/C=C3\CO[C@@H]4[C@H](O)C(C)=CC(C(=O)O1)C34O)O2 (stereo not given in full) | 50 ng/mL (≈ 54.6 nM) | 10 ng/mL (≈ 10.9 nM)
CCOC(=O)CO[C@H]1[C@H](C)O[C@@H](OC2[C@H](C)O[C@@H](OC3/C(C)=C/C[C@@H]4C[C@@H](C[C@]5(CC[C@H](C)[C@@H](C(C)CC)O5)O4)OC(=O)C4C=C(C)[C@@H](O)[C@H]5OC/C(=C\C=C\[C@@H]3C)C45O)C[C@@H]2OC)C[C@@H]1OC (stereo not given in full) | 2 ng/mL (≈ 2.08 nM) | 0.5 ng/mL (≈ 0.52 nM)
CCC(C)[C@H]1O[C@]2(C=C[C@@H]1C)C[C@@H]1C[C@@H](C/C=C(\C)C(O[C@H]3C[C@H](OC)C(O[C@H]4C[C@H](OC)[C@@H](OC/C=N/OC)[C@H](C)O4)[C@H](C)O3)[C@@H](C)/C=C/C=C3\CO[C@@H]4[C@H](O)C(C)=CC(C(=O)O1)C34O)O2 (stereo not given in full) | 2 ng/mL (≈ 2.12 nM) | 0.5 ng/mL (≈ 0.53 nM)
CCOC(=O)CO[C@H]1[C@H](C)OC(O[C@H]2[C@H](C)O[C@@H](OC3/C(C)=C/C[C@@H]4C[C@@H](C[C@]5(C=C[C@H](C)[C@@H](C(C)CC)O5)O4)OC(=O)[C@@H]4C=C(C)[C@@H](O)[C@H]5OC/C(=C\C=C\[C@@H]3C)[C@]54O)C[C@@H]2OC)C[C@@H]1OC (stereo not given in full) | 2 ng/mL (≈ 2.09 nM) | 0.5 ng/mL (≈ 0.521 nM)
CCOC(=O)CO[C@H]1[C@H](C)O[C@@H](O[C@@H]2/C(C)=C/C[C@@H]3C[C@@H](C[C@]4(CC[C@H](C)[C@@H](C(C)CC)O4)O3)OC(=O)C3C=C(C)[C@@H](O)[C@H]4OC/C(=C\C=C\[C@@H]2C)C34O)C[C@@H]1OC (stereo not given in full) | 2 ng/mL (≈ 2.45 nM) | 0.5 ng/mL (≈ 0.612 nM)
CCOC(=O)CO[C@H]1[C@H](C)O[C@@H](OC2[C@H](C)O[C@@H](OC3/C(C)=C/C[C@@H]4C[C@@H](C[C@]5(CC(O)[C@H](C)[C@@H](C(C)CC)O5)O4)OC(=O)C4C=C(C)[C@@H](O)[C@H]5OC/C(=C\C=C\[C@@H]3C)C45O)C[C@@H]2OC)C[C@@H]1OC (stereo not given in full) | 2 ng/mL (≈ 2.05 nM) | 0.5 ng/mL (≈ 0.512 nM)
CC[C@H](C)[C@H]1O[C@]2(C=C[C@@H]1C)C[C@@H]1C[C@@H](C/C=C(\C)[C@@H](O[C@H]3C[C@H](OC)[C@@H](O[C@H]4C[C@H](OC)[C@@H](O)[C@H](C)O4)[C@H](C)O3)[C@@H](C)/C=C/C=C3\CO[C@@H]4[C@H](O)C(C)=C[C@@H](C(=O)O1)[C@]34O)O2 [ABAMECTIN COMPONENT B1A] | 2 ng/mL (≈ 2.29 nM) | 0.5 ng/mL (≈ 0.573 nM)
